From patent US20230123334A1, “AMINO LIPID COMPOUND, PREPARATION METHOD THEREFOR, AND APPLICATION THEREOF” (SHENZHEN SHENXIN BIOTECHNOLOGY CO., LTD., priority 2020, published 2023)

What was measured:
[1] = system: HEK293 cells; experiment: Preliminary screening as DNA vectors, GFP transfection of HEK293 cells; assay type: cell-based; conditions: HEK293 cells; lipid/DOPE liposome with 75 ng plasmid DNA (psin-EGFP-IRES-Puro); number of cells expressing GFP divided by total number of nuclei (Hoechst)
Method in brief: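 Lipid + DOPE liposomes (NaOAc, pH 5.6) complexed w/ 75 ng psin-EGFP-IRES-Puro, 30 min RT; added to 3-5×10^4 HEK293/well, 37° C. Hoechst 0.2 μg/mL at 20-24 h, imaged after further 20-24 h. Efficiency = GFP+ cells / total nuclei.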

[2] = system: HEK293 cells; experiment: Preliminary screening as mRNA vectors, EGFP mRNA transfection of HEK293 cells; assay type: cell-based; conditions: HEK293 cells, 96-well plates, EGFP mRNA 50 ng per well; percentage of GFP fluorescent cells relative to total number of cells (Hoechst)
Method in brief: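 Each well of HEK293 cells received 50 ng of EGFP mRNA. Efficiency was expressed as percent GFP-expressing cells over Hoechst-defined total cell number.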

Row | Structure (SMILES) | Absolute DNA transfection efficiency in HEK293 cells [1] | Absolute mRNA transfection efficiency in HEK293 cells [2]
1 | CCCCCCCCCCCCCCCCCCSc1nc(NCCN(CC)CC)nc(SCCCCCCCCCCCCCCC)n1 [Compound S15S18D7] | 1.5% | 9.3%
2 | CCCCCCCCCCCCCCCCCCSc1nc(NCCCN2CCOCC2)nc(SCCCCCCCCCCCCCCC)n1 [Compound S15S18D8] | 0.0% | 0.5%
3 | CCCCCCCCCCCCCCCCCCSc1nc(NCCCN2CCN(C)CC2)nc(SCCCCCCCCCCCCCCC)n1 [Compound S15S18D9] | 0.3% | 0.0%
4 | CCCCCCCCCCCCCCCCCCSc1nc(NCC2CCN(C)CC2)nc(SCCCCCCCCCCCCCCC)n1 [Compound S15S18D10] | 0.3% | 1.8%
5 | CCCCCCCCCCCCCCCCSc1nc(NCCN(C)C)nc(SCCCCCCCCCCCCCCCC)n1 [Compound S16S16D1] | 0.6% | 0.4%
6 | CCCCCCCCCCCCCCCCSc1nc(NCCN2CCOCC2)nc(SCCCCCCCCCCCCCCCC)n1 [Compound S16S16D2] | 1.1% | 0.2%
7 | CCCCCCCCCCCCCCCCSc1nc(NCCN2CCCC2)nc(SCCCCCCCCCCCCCCCC)n1 [Compound S16S16D3] | 0.9% | 0.8%
8 | CCCCCCCCCCCCCCCCSc1nc(NCCN2CCCCC2)nc(SCCCCCCCCCCCCCCCC)n1 [Compound S16S16D4] | 1.2% | 2.2%
9 | CCCCCCCCCCCCCCCCSc1nc(NCCN2CCN(C)CC2)nc(SCCCCCCCCCCCCCCCC)n1 [Compound S16S16D5] | 0.0% | 0.7%
10 | CCCCCCCCCCCCCCCCSc1nc(NCCCN(C)C)nc(SCCCCCCCCCCCCCCCC)n1 [Compound S16S16D6] | 0.5% | 0.5%
11 | CCCCCCCCCCCCCCCCSc1nc(NCCN(CC)CC)nc(SCCCCCCCCCCCCCCCC)n1 [Compound S16S16D7] | 0.5% | 0.0%
12 | CCCCCCCCCCCCCCCCSc1nc(NCCCN2CCOCC2)nc(SCCCCCCCCCCCCCCCC)n1 [Compound S16S16D8] | 0.0% | 1.7%
13 | CCCCCCCCCCCCCCCCSc1nc(NCCCN2CCN(C)CC2)nc(SCCCCCCCCCCCCCCCC)n1 [Compound S16S16D9] | 0.5% | 0.2%
14 | CCCCCCCCCCCCCCCCSc1nc(NCC2CCN(C)CC2)nc(SCCCCCCCCCCCCCCCC)n1 [Compound S16S16D10] | 0.1% | 2.7%
15 | CCCCCCCCCCCCCCCCCCSc1nc(NCCN(C)C)nc(SCCCCCCCCCCCCCCCC)n1 [Compound S16S18D1] | 1.2% | 2.1%
16 | CCCCCCCCCCCCCCCCCCSc1nc(NCCN2CCOCC2)nc(SCCCCCCCCCCCCCCCC)n1 [Compound S16S18D2] | 0.0% | 0.0%
17 | CCCCCCCCCCCCCCCCCCSc1nc(NCCN2CCCC2)nc(SCCCCCCCCCCCCCCCC)n1 [Compound S16S18D3] | 1.9% | 1.8%
18 | CCCCCCCCCCCCCCCCCCSc1nc(NCCN2CCCCC2)nc(SCCCCCCCCCCCCCCCC)n1 [Compound S16S18D4] | 0.3% | 0.3%
19 | CCCCCCCCCCCCCCCCCCSc1nc(NCCN2CCN(C)CC2)nc(SCCCCCCCCCCCCCCCC)n1 [Compound S16S18D5] | 1.7% | 0.3%
20 | CCCCCCCCCCCCCCCCCCSc1nc(NCCCN(C)C)nc(SCCCCCCCCCCCCCCCC)n1 [Compound S16S18D6] | 0.2% | 1.8%

Row | Structure (SMILES) | Absolute DNA transfection efficiency in HEK293 cells [1] | Absolute mRNA transfection efficiency in HEK293 cells [2]
21 | CCCCCCCCCCCCCCCCCCSc1nc(NCCN(CC)CC)nc(SCCCCCCCCCCCCCCCC)n1 [Compound S16S18D7] | 1.0% | 1.8%
22 | CCCCCCCCCCCCCCCCCCSc1nc(NCCCN2CCOCC2)nc(SCCCCCCCCCCCCCCCC)n1 [Compound S16S18D8] | 0.3% | 1.9%
23 | CCCCCCCCCCCCCCCCCCSc1nc(NCCCN2CCN(C)CC2)nc(SCCCCCCCCCCCCCCCC)n1 [Compound S16S18D9] | 0.4% | 0.5%
24 | CCCCCCCCCCCCCCCCCCSc1nc(NCC2CCN(C)CC2)nc(SCCCCCCCCCCCCCCCC)n1 [Compound S16S18D10] | 0.8% | 3.0%
25 | CCCCCCCCCCCCCCCCCCSc1nc(NCCN(C)C)nc(SCCCCCCCCCCCCCCCCCC)n1 [Compound S18S18D1] | 0.0% | 0.0%
26 | CCCCCCCCCCCCCCCCCCSc1nc(NCCN2CCOCC2)nc(SCCCCCCCCCCCCCCCCCC)n1 [Compound S18S18D2] | 0.0% | 0.1%
27 | CCCCCCCCCCCCCCCCCCSc1nc(NCCN2CCCC2)nc(SCCCCCCCCCCCCCCCCCC)n1 [Compound S18S18D3] | 0.1% | 0.1%
28 | CCCCCCCCCCCCCCCCCCSc1nc(NCCN2CCCCC2)nc(SCCCCCCCCCCCCCCCCCC)n1 [Compound S18S18D4] | 0.1% | 0.1%
29 | CCCCCCCCCCCCCCCCCCSc1nc(NCCN2CCN(C)CC2)nc(SCCCCCCCCCCCCCCCCCC)n1 [Compound S18S18D5] | 0.1% | 0.1%
30 | CCCCCCCCCCCCCCCCCCSc1nc(NCCCN(C)C)nc(SCCCCCCCCCCCCCCCCCC)n1 [Compound S18S18D6] | 0.2% | 0.5%
31 | CCCCCCCCCCCCCCCCCCSc1nc(NCCN(CC)CC)nc(SCCCCCCCCCCCCCCCCCC)n1 [Compound S18S18D7] | 0.2% | 0.0%
32 | CCCCCCCCCCCCCCCCCCSc1nc(NCCCN2CCOCC2)nc(SCCCCCCCCCCCCCCCCCC)n1 [Compound S18S18D8] | 0.0% | 0.0%
33 | CCCCCCCCCCCCCCCCCCSc1nc(NCCCN2CCN(C)CC2)nc(SCCCCCCCCCCCCCCCCCC)n1 [Compound S18S18D9] | 0.9% | 0.1%
34 | CCCCCCCCCCCCCCCCCCSc1nc(NCC2CCN(C)CC2)nc(SCCCCCCCCCCCCCCCCCC)n1 [Compound S18S18D10] | 0.0% | 0.0%
35 | CCCCCCCCCCCCN(CCCCCCCCCCCC)c1nc(NCCCCCC)nc(NCCN(C)C)n1 [N6^2N12D1] | 0.6% | 0.0%
36 | CCCCCCCCCCCCN(CCCCCCCCCCCC)c1nc(NCCCCCC)nc(NCCN2CCOCC2)n1 [N6^2N12D2] | 0.2% | 0.0%
37 | CCCCCCCCCCCCN(CCCCCCCCCCCC)c1nc(NCCCCCC)nc(NCCN2CCCC2)n1 [N6^2N12D3] | 0.4% | 0.1%
38 | CCCCCCCCCCCCN(CCCCCCCCCCCC)c1nc(NCCCCCC)nc(NCCN2CCCCC2)n1 [N6^2N12D4] | 0.2% | 0.0%
39 | CCCCCCCCCCCCN(CCCCCCCCCCCC)c1nc(NCCCCCC)nc(NCCN2CCN(C)CC2)n1 [N6^2N12D5] | 0.2% | 0.0%
40 | CCCCCCCCCCCCN(CCCCCCCCCCCC)c1nc(NCCCCCC)nc(NCCCN(C)C)n1 [N6^2N12D6] | 0.4% | 0.1%
